Assay results as given in paper PMC8243547 (BMC Complementary Medicine and Therapies, 2021).
In brackets after ≈: the same amount, converted by molar mass. Several values for one entry are separate records, joined by “and”; a condition that tells them apart may be missing. Identical values can stand only once. Like-named read-outs stand apart in the source and are kept apart here. Blank lines part the entries; values can stand above or below the compound they belong to.

Legend:
[1] = test system: chloroquine-sensitive 3D7 strain of P. falciparum; experiment: SYBR green I fluorescence-based antiplasmodial assay, Pf3D7; assay type: cell-based; details: Plasmodium falciparum
Procedure: (§1) The cytotoxicity assay was performed using the African green monkey normal kidney Vero cells (ATCC CRL 1586) and murine macrophages Raw 264.7 cells (ATCC #TIB-71) obtained from the American Type Culture Collection (ATCC).
(§2) The culture medium was renewed daily to propagate the culture. Thin blood smears were made and stained with 10% Giemsa solution for 10 min and microscopically examined under oil immersion to monitor cell cycle transition and parasitaemia.
(§3) Before each experiment, synchronized ring stage parasites were obtained by 5% sorbitol (w/v) treatment as previously described.
(§4) The parasite susceptibility was determined in 96-well microtitration plates using the SYBR green I fluorescence-based method with some modifications. Briefly, sorbitol-synchronized ring stage parasites (hematocrit: 1.5%, parasitemia: 1%) were incubated in the presence of two-fold diluted extracts (0.78-100 μg/mL, DMSO 0.5%), fractions (0.39-50 μg/mL, DMSO 0.5%) or compounds (0.15-20 μg/mL, DMSO 0.5%). […] Drug-free culture wells in 0.5% DMSO were considered as positive growth controls. After 72 h of incubation, 50 μL of SYBR Green I lysis solution [Tris (20 mM; pH 7.5) (Sigma–Aldrich), EDTA (5 mM) (Sigma–Aldrich), saponin (0.008%, w/v) (Sigma–Aldrich), Triton X-100 (0.08%, v/v) (Sigma–Aldrich) and SYBR Green (2x) (Life technologies)] were added to each well and the plate was incubated in the dark at 37 °C for 30 min. SYBR green I fluorescence was measured using a Fluoroskan Ascent multi-well plate reader (Thermo scientific) with excitation and emission wavelength bands set at 485 and 538 nm, respectively. […] The resistance indices (RI), defined as the ratio of the EC50 of drug-resistant strain to the EC50 of sensitive strain were calculated.
(§5) Microsoft Excel Software was used to calculate the percentage of inhibition. The EC50 and CC50 values for the in vitro antiplasmodial activity were determined by non-linear regression analysis using GraphPad Prism 5.0 Software.

[2] = test system: multi-resistant Dd2 strain of P. falciparum; experiment: SYBR green I fluorescence-based antiplasmodial assay, PfDd2; assay type: cell-based; details: Plasmodium falciparum
Procedure: as §1, §2, §3, §4, §5

in vitro = details: African green monkey
Procedure: as §1
(§6) The cytotoxicity of active natural products was assessed according to the protocol described by. The African green monkey normal kidney Vero cells (ATCC CRL 1586) and murine macrophages Raw 264.7 cells (ATCC #TIB-71) were maintained in T-25 flasks (Corning Incorporated, USA) using complete Dulbecco’s Modified Eagle’s Medium (Sigma-Aldrich, Germany), supplemented with, 10% Fetal Bovine Serum (Sigma-Aldrich, Germany), 0.2% sodium bicarbonate (w/v) (Sigma-Aldrich, Germany) and 1% (v/v) Penicillin-Streptomycin (Sigma-Aldrich, Germany). The cells were kept at 37 °C for 72 h in 5% CO2 incubator, and the medium was renewed each 72 h and the cell density monitored under the inverted fluorescent microscope Etaluma 520 (Etaluma, USA) until the formation of a monolayer. Confluent culture (nearly 90%) was trypsinized (0.05% Trypsin-EDTA, Sigma-Aldrich, Germany), then centrifuged at 1800 rpm for 5 min and the resulting pellet was re-suspended in culture medium. Cells at 10^4cells per well were seeded (100 μL) in 96-well culture plates (Costar, USA) and incubated overnight to allow cell adhesion. Thereafter, 10 μL of serially diluted extracts, fractions (≤200 μg/mL), and compounds (≤50 μg/mL) were added to plate wells in duplicate. The plates were incubated in a humidified and 5% CO2 atmosphere at 37 °C for 48 h. Podophyllotoxin at 20 μM was added as positive control and wells containing untreated cells were included as 100% growth control. Ten microliters of resazurin stock solution (0.15 mg/mL in sterile PBS), were added to each well, and incubated for an additional 4 h. Fluorescence was then read using a Magelan Infinite M200 fluorescence multi-well plate reader (Tecan) with excitation and emission wavelengths at 530 and 590 nm, respectively. The percentage of cell viability was calculated with regard to the negative control, and subsequently used to determine the concentration that reduced 50% of cell viability (CC50) by non-linear regression using the GraphPad Prism software version 5.0 (San Diego, California) as described above. Selectivity indices (SI = CC50/EC50, defining the balance between cytotoxicity and antiplasmodial activity) were calculated for each test substance.
as §5

[3] = test system: African green monkey normal kidney Vero cells; experiment: Resazurin-based cytotoxicity assay, Vero cells; details: over Vero and Raw 264.7 cells and Pf3D7 and PfDd2 strains
Procedure: as §1, §6, §5

[4] = Resazurin-based cytotoxicity assay, Raw 264.7 cells; details: mouse
Procedure: as §1
as §6, with “Podophyllotoxin at 20 μM was added as positive control and wells containing untreated cells were included as 100% growth control. Ten microliters of resazurin stock solution (0.15 mg/mL in sterile PBS), were added to each well, and incubated for an additional 4 h.” left out, “The percentage of cell viability was calculated with regard to the negative control, and subsequently used to determine the concentration that reduced 50% of cell viability (CC50) by non-linear regression using the GraphPad Prism software version 5.0 (San Diego, California) as described above.” left out
as §5

[5] = test system: chloroquine sensitive poW strain of P. falciparum; set-up: method as in PMID 12064726; details: read-out: EC50 against chloroquine sensitive poW strain; cited from earlier work
[6] = test system: multi-resistant Dd2 strain of P. falciparum; set-up: method as in PMID 12064726; details: read-out: EC50 against multi-resistant Dd2 strain; cited from earlier work
[7] = test system: chloroquine sensitive strain Pf3D7; set-up: method as in PMID 18710482; details: read-out: EC50 against chloroquine sensitive strain Pf3D7; cited from earlier work
[8] = test system: chloroquine resistant strain Pf7G8; set-up: method as in PMID 18710482; details: read-out: EC50 against chloroquine resistant strain Pf7G8; cited from earlier work
[9] = test system: chloroquine-sensitive strain D10 of P. falciparum; set-up: method as in PMID 21503279; details: cited from earlier work
[10] = test system: resistant strain W2 of P. falciparum; set-up: method as in PMID 21503279; details: cited from earlier work
P. berghei = details: murine malaria model, cited from earlier work
FabI = test system: FabI; set-up: method as in PMID 16722653; details: enzyme of fatty acid biosynthesis of P. falciparum; read-out: EC50 of FabI inhibition; cited from earlier work
[11] = test system: human liver cell line Huh7; details: cited from earlier work
red blood cells = details: cited from earlier work
normal human cells TIG-1 = details: read-out: 50% lethal concentration (LC50), TIG-1; cited from earlier work
normal human cells HUVE = details: read-out: 50% lethal concentration (LC50), HUVE; cited from earlier work
Pf3D7 = test system: Pf3D7; set-up: method as in PMID 19015351; details: read-out: antiplasmodial potency Pf3D7; cited from earlier work
PfDd2 = test system: PfDd2; set-up: method as in PMID 19015351; details: read-out: antiplasmodial potency PfDd2; cited from earlier work
[12] = 3D7, isolated compounds and reference drugs (Table 3), 72 h incubation, read-out: EC50 (μM) Pf3D7
[13] = DD2, 72 h, read-out: EC50 (μM) PfDd2
[14] = DD2, isolated compounds and reference drugs (Table 3), 72 h incubation, read-out: EC50 (μM) PfDd2

SMILES: C=C(C)[C@@H]1CC[C@]2(C)CC[C@]3(C)C(CCC4[C@@]5(C)C[C@H](O)[C@H](O)C(C)(C)C5CC[C@]43C)C12 (stereo partly drawn) [Compound 4, 2β,3β-dihydroxylup-20-ene]
EC50 [1, 12]: > 200 µM | EC50 [2, 13]: > 200 µM

EC50 [1, 12]: > 200 µM | EC50 [2, 14]: > 200 µM
SMILES: O=c1c(O)c(-c2ccc(O)cc2)oc2cc(O)cc(O)c12 [Compound 3, kaempferol]

SMILES: O=c1cc(-c2ccc(O)cc2)oc2cc(O)cc(O)c12 [Compound 1, apigenin]
EC50 [1, 12]: 19 ± 0.72 µM | EC50 [2, 14]: 16.4 ± 0.52 µM | CC50 at 48 h (in vitro): > 185 µM | SI (selectivity index) [3]: greater than 9 | CC50 at 48 h [4]: > 185 µM | EC50 [5]: 19 µM | EC50 [6]: 28.5 µM | EC50 [7]: 20 ± 3 µM | EC50 [8]: 13 ± 2 µM | EC50 against chloroquine-sensitive strain D10 [9]: 25.4 ± 7.9 µg/mL (≈ 94 µM) | EC50 against resistant strain W2 [10]: 20.2 ± 6.4 µg/mL (≈ 74.7 µM) | suppression of P. berghei parasiteamia (P. berghei; 15 mg/kg/day): 49.23% | suppression of P. berghei parasiteamia (P. berghei; 35 mg/kg/day): 50.3% | suppression of P. berghei parasiteamia (P. berghei; 70 mg/kg/day): 69.74% | EC50 (FabI): 50 µM | cytotoxicity on Huh7, in words [11]: no signs of cytotoxicity | membrane disruption on red blood cells, in words (red blood cells): no signs | CC50 (normal human cells TIG-1): 110 µM | CC50 (normal human cells HUVE): 110 µM

EC50 [1, 12]: > 200 µM | EC50 [2, 14]: > 200 µM
SMILES: Oc1ccc([C@H]2Oc3cc(O)cc(O)c3C[C@@H]2O)cc1 [Compound 2, afzelechin]

SMILES: COc1cc([C@@H]2c3cc4c(cc3[C@H](O)[C@H]3COC(=O)[C@H]23)OCO4)cc(OC)c1OC [Podophyllotoxin, reference compound]
CC50 at 48 h (in vitro): 1.89 µg/mL and 4.56 µM | CC50 at 48 h [4]: 0.76 µg/mL and 1.83 µM

EC50 [1, 12]: 4.27 ± 0.05 µM | EC50 [2, 14]: 1.36 ± 0.47 µM
SMILES: COc1c(O)cc2c(=O)oc3c(OC)c(O)cc4c(=O)oc1c2c34 [Compound 6, 3,3′-O-dimethylellagic acid]
CC50 at 48 h (in vitro): > 152 µM | SI (selectivity index) [3]: greater than 9 | CC50 at 48 h [4]: > 152 µM

SMILES: O=c1oc2c(O)c(O)cc3c(=O)oc4c(O)c(O)cc1c4c23 [ellagic acid]
EC50 (Pf3D7): 0.819 µM | EC50 (PfDd2): 0.351 µM

SMILES: CCN(CC)CCCC(C)Nc1ccnc2cc(Cl)ccc12 (stereo not drawn) [Chloroquine, reference compound]
EC50 ([1]; 3D7, 72 h, read-out: EC50 (μM) Pf3D7): 0.018 ± 0.002 µM | EC50 ([1]; 3D7, 72 h, read-out: EC50 Pf3D7, reference drugs (μM)): 0.018 ± 0.002 µM | EC50 [2, 13]: 0.449 ± 0.065 µM | EC50 ([2]; DD2, 72 h, read-out: EC50 PfDd2, reference drugs (μM)): 0.449 ± 0.065 µM

EC50 ([1]; 3D7, Table 1 reference drugs, 72 h incubation, read-out: EC50 Pf3D7, reference drugs): 0.014 ± 0.001 µM | EC50 [1, 12]: 0.014 ± 0.001 µM | EC50 ([2]; DD2, Table 1 reference drugs, 72 h incubation, read-out: EC50 PfDd2, reference drugs): 0.018 ± 0.003 µM | EC50 [2, 14]: 0.018 ± 0.003 µM
SMILES: C[C@@H]1CC[C@H]2[C@@H](C)C(=O)O[C@@H]3O[C@@]4(C)CC[C@@H]1[C@]32OO4 [Artemisinin, reference compound]
